The values that follow come from US12319655B2, “RAF kinase inhibitors and methods of use thereof” (Deciphera Pharmaceuticals, LLC, priority 2021, dated 2025).

Assay [1] has as its system A375 cells. Put plainly: A375 Cell Proliferation Assay (1). It is filed as cell-based. The conditions noted are these: Homo sapiens, A-375. The method in brief:
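Resazurin fluorescence (excitation 540 nm, emission 600 nm, after a further 5-6 h) gave IC50s from triplicate compound dilution series.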

In assay [2] the target is B-Raf kinase (SEQ. ID NO: 2) (Homo sapiens (Human), UniProt P15056). Put plainly: Biochemical Assay for B-Raf (1). The conditions noted are these: Table J, assay version (1); read-out: BRAF (1) IC50. The method in brief:
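IC50 derived by four-parameter sigmoidal fit of percent inhibition, normalised to uninhibited and reference-inhibitor controls, using reaction rates over 4–5 h. Coupled spectrophotometric readout (NADH loss at 340 nm, 6 h, 30° C.); 1 mM ATP, 30.1 nM MEK, 0.13 nM B-Raf, pH 7.5 Tris buffer, 1% DMSO.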

Assay [3] has as its system WM3928 cells. Put plainly: WM3928 Cell Proliferation Assay (1). It is filed as cell-based. On the procedure: WM3928 Cell Proliferation Assay (1)
WM3928 cells (#WM3928-01-0001) are obtained from Rockland Immunochemicals Inc (Gilbertsville, PA). Briefly, cells were grown in MCDB 153 medium (Sigma, #M7403, St. Louis, MO) supplemented with 20% Leibovitz's L-15 (ThermoFisher #11415-064, Waltham, MA), 2% heat inactivated fetal bovine serum (ThermoFisher, #A3840001, Waltham, MA), 5 μg/mL Insulin (Bovine Pancreas) (Sigma, #I0516, St. Louis, MO), 1.68 mM Calcium Chloride (Sigma, #C-34006, St. Louis, MO) and 1% Penicillin/Streptomycin/L-Glutamine (ThermoFisher #10378016, Waltham, MA) at 37° C., 5% CO2, and 95% humidity. Cells are expanded until reaching 70-95% confluency at which point they are subcultured or harvested for assay use. A serial dilution of test compound is dispensed into a 96-well black clear bottom plate in triplicate. Three thousand cells are added per well in 200 μL complete growth medium in the 96-well plate. Plates are incubated for 67-72 hours at 37° C., 5% CO2, and 95% humidity. At the end of the incubation, 40 μL of a 440 μM solution of resazurin (Sigma, #199303, St. Louis, MO) in PBS is added to each well of the plate and plates are incubated for an additional 6-7 hours at 37° C., 5% CO2, and 95% humidity. Plates are read on a Synergy2 or equivalent reader (Biotek, Winooski VT) using an excitation of 540 nm and an emission of 600 nm. Data is analyzed using Prism software (GraphPad, San Diego, CA) to calculate IC50 values.

In assay [4] the test system is Miapaca-2 cells. Put plainly: MiaPaca-2 Combination Cell proliferation Assay (1) with cobimetinib. It is filed as cell-based. The settings on record: MiaPaca-2 cell proliferation, read-out: MiaPaca-2 Combo (1) IC50. Here is the method:
MiaPaca-2 Combination Cell proliferation Assay (1)
Miapaca-2 cells (catalog #CRL-1420) are obtained from the American Type Culture Collect (ATCC, Manassas, VA). Briefly, cells were grown in DMEM supplemented with 10% characterized fetal bovine serum (Invitrogen, Carlsbad, CA), 2.5% New Zealand sourced horse serum and 1% Penicillin/Streptomycin/L-Glutamine at 37° C., 5% CO2, and 95% humidity. Cells are expanded until reaching 70-95% confluency at which point they are subcultured or harvested for assay use. A serial dilution of test compound was dispensed into multiple 96-well black clear bottom plates in triplicate. A serial dilution of complete growth medium containing cobimetinib was prepared at twice the final concentration and 100 μL was dispensed across the test compound titration in triplicate. Three thousand cells are added per well in 100 μL complete growth medium in each 96-well plate. Plates are incubated for 67-72 hours at 37° C., 5% CO2, and 95% humidity. At the end of the incubation, 40 μL of a 440 μM solution of resazurin (Sigma, St. Louis, MO) in PBS is added to each well of the plate and plates are incubated for an additional 5-7 hours at 37° C., 5% CO2, and 95% humidity. Plates are read on a Synergy2 or equivalent reader (Biotek, Winooski VT) using an excitation of 540 nm and an emission of 600 nm. Drug synergy was assessed via BLISS analysis in the Combenefit software (Cancer Research UK Cambridge Institute, Cambridge, UK). Data is analyzed using Prism software (Graphpad, San Diego, CA) to calculate IC50 values. Shifts in test compound IC50 values are reported from top-constrained combination therapy curves.

B-Raf kinase (SEQ. ID NO: 2), sequence (P15056 416-766): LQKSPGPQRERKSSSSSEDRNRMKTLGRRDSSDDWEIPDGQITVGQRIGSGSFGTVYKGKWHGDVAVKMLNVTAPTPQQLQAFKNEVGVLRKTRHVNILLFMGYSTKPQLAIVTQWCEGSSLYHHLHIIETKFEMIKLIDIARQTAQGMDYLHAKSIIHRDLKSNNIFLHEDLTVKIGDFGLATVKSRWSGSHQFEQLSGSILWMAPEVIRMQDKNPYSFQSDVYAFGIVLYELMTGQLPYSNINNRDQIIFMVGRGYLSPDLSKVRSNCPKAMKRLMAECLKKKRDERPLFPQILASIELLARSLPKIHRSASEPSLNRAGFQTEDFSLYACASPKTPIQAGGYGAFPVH

Turning to `CNc1cc(-c2cccc(-c3cc(NC(=O)c4ccnc(C(C)(C)C#N)c4)ccc3C)c2)ncn1` [Example 160], the IC50 in assay [1] is 100 to 500 nM; in assay [2], no more than 100 nM; in assay [3], no more than 100 nM; in assay [4], 100 to 500 nM.
Take `CNC(=O)c1cc(-c2cc(-c3cc(NC(=O)c4ccnc(C(C)(C)C#N)c4)cnc3C)ccn2)ccn1` [Example 158]: the IC50 in assay [1] was no more than 100 nM; in assay [2], 100 to 500 nM; in assay [3], 100 to 500 nM; in assay [4], no more than 100 nM.
Take `CC(=O)Nc1cc(-c2cc(-c3cc(NC(=O)c4ccnc(C(F)(F)F)c4)c(F)cc3C)cc(C)n2)ccn1` [Example 4]: the IC50 in assay [1] is 100 to 500 nM; in assay [2] it was no more than 100 nM; in assay [4], no more than 100 nM.
Regarding `CNC(=O)c1cc(-c2nccc(-c3cc(NC(=O)c4ccnc(C5(C#N)CC5)c4)ccc3C)n2)ccn1` [Example 175], the IC50 in assay [1] was 100 to 500 nM; in assay [2] it was no more than 100 nM; in assay [3] it was no more than 100 nM; in assay [4], no more than 100 nM.
Regarding `Cc1ncc(NC(=O)c2cccc(C(F)(F)F)c2)cc1-c1cccc(-c2ccnc(NC(=O)CC#N)c2)c1` [Example 97], the IC50 in assay [1] is 100 to 500 nM; in assay [2], no more than 100 nM; in assay [3], no more than 100 nM.
As for `Cc1cc(F)c(NC(=O)c2ccnc(C(F)(F)F)c2)cc1-c1ccnc(-c2ccnc(NC(=O)CN(C)C)c2)c1` [Example 7], the IC50 in assay [1] was 500 to 1000 nM; in assay [2], no more than 100 nM; in assay [4] it was 100 to 500 nM.
Consider `CC(=O)Nc1cc(-c2nccc(-c3cc(NC(=O)c4cnnc(C5CC5)c4)ccc3C)n2)ccn1` [Example 168], for which the half-inhibitory concentration (IC50) in assay [1] is 500 to 1000 nM; in assay [2], no more than 100 nM; in assay [3], 500 to 1000 nM.
`Cc1ncc(NC(=O)c2ccnc(C(C)(C)C#N)c2)cc1-c1cccc(-c2ncnc3c2CC(=O)N3)c1` [Example 110]: the IC50 in assay [1] was 1000 to 10000 nM; in assay [2], 100 to 500 nM; in assay [3], 500 to 1000 nM.
For the compound `CNC(=O)c1cc(-c2cc(-c3cc(NC(=O)c4ccnc(C5(C#N)CC5)c4)ccc3C)ncn2)ccn1` [Example 178], the IC50 in assay [1] was 100 to 500 nM; in assay [2], no more than 100 nM; in assay [3], no more than 100 nM.
As to `CC(=O)Nc1cc(-c2cncc(-c3cc(NC(=O)c4cccc(C(C)(C)C#N)c4)ccc3C)n2)ccn1` [Example 125], the IC50 in assay [1], in assay [2] and in assay [3] was no more than 100 nM throughout.
With `Cc1ccc(NC(=O)c2ccnc(C(C)(C)C#N)c2)cc1-c1ccnc(-c2ccnc3c2CC(=O)N3)n1` [Example 101], the IC50 in assay [1] is 500 to 1000 nM; in assay [2], no more than 100 nM; in assay [3] it was 100 to 500 nM.
In the same order, the values of `Cc1ncc(NC(=O)c2ccnc(C(C)(C)C#N)c2)cc1-c1cccc(-c2ccnc3c2CC(=O)N3)c1` [Example 105] are 1000 to 10000 nM, 100 to 500 nM and 100 to 500 nM.
Take `CC(=O)Nc1cc(-c2nccc(-c3cc(NC(=O)c4ccnc(C5(C#N)CC5)c4)ccc3C)n2)ccn1` [Example 151]: the IC50 in assay [1], in assay [2] and in assay [3] was no more than 100 nM each time.
In the case of `Cc1ccc(NC(=O)c2cccc(C(C)(C)C#N)c2)cc1-c1cccc(-c2cc(NC(=O)C3CC3)ncn2)c1` [Example 174], the IC50 in assay [1], in assay [2] and in assay [3] was no more than 100 nM in each case.
In the case of `CC(=O)Nc1cc(-c2nccc(-c3cc(NC(=O)c4cccc(C(C)(C)C#N)c4)ccc3C)n2)ccn1` [Example 150], the half-inhibitory concentration (IC50) in assay [1], in assay [2] and in assay [3] was no more than 100 nM in each case.
For the compound `Cc1ccc(NC(=O)c2ccnc(C(C)(C)C#N)c2)cc1-c1cncc(-c2ccnc(NC(=O)CC#N)c2)n1` [Example 154], the IC50 in assay [1], in assay [2] and in assay [3] was no more than 100 nM in each case.
On to `Cc1ccc(NC(=O)c2ccnc(C(C)(C)C#N)c2)cc1-c1nccc(-c2ccnc(NC(=O)C3CC3)c2)n1` [Example 169], for which the IC50 in assay [1], in assay [2] and in assay [3] was no more than 100 nM each time.
With `CNC(=O)c1cc(-c2cc(-c3cc(NC(=O)c4ccnc(C(C)(C)C#N)c4)c(F)cc3C)ccn2)ccn1` [Example 176], the concentration for half-maximal inhibition (IC50) in assay [1] was no more than 100 nM; in assay [2], 100 to 500 nM; in assay [3], no more than 100 nM.
With `CC(=O)Nc1cc(-c2cccc(-c3cc(NC(=O)c4ccnc(C(F)(F)F)c4)c(F)cc3C)c2)ncn1` [Example 114], the IC50 in assay [1], in assay [2] and in assay [3] was no more than 100 nM throughout.
With `Cc1cc(F)c(NC(=O)c2ccnc(C(C)(C)C#N)c2)cc1-c1ccnc(-c2ccnc(NC(=O)C3CC3)c2)n1` [Example 179], the IC50 in assay [1], in assay [2] and in assay [3] was no more than 100 nM in each case.
With `CC(=O)Nc1cc(-c2cc(-c3cc(NC(=O)c4ccnc(C(F)(F)F)c4)c(F)cc3C)cc(OC(C)C)n2)ccn1` [Example 10], the IC50 is no more than 100 nM in assay [1], 100 to 500 nM in assay [2] and no more than 100 nM in assay [3].
As to `Cc1ccc(NC(=O)c2ccnc(C(F)(F)F)c2)cc1-c1ccnc(-c2ccnc(N)c2)n1` [Example 122], the IC50 in assay [1] was 1000 to 10000 nM; in assay [2], no more than 100 nM; in assay [3], 1000 to 10000 nM.
Take `Cc1ncc(NC(=O)c2ccnc(C3CC3)c2)cc1-c1cccc(-c2ncnc3[nH]ncc23)c1` [Example 131]: the IC50 was 1000 to 10000 nM in assay [1], no more than 100 nM in assay [2] and 1000 to 10000 nM in assay [3].
With `Cc1ccc(NC(=O)c2ccnc(C(C)(C)C#N)c2)cc1-c1cncc(-c2ccnc(C(=O)NC3CC3)c2)n1` [Example 148], the IC50 in assay [1] was in the range of 1000 to 10000 nM; in assay [2], 100 to 500 nM; in assay [3], 500 to 1000 nM.
Take `CNC(=O)c1cc(-c2cc(-c3cc(NC(=O)c4cccc(C(C)(C)C#N)c4)ccc3C)ccn2)ccn1` [Example 127]: the IC50 in assay [1], in assay [2] and in assay [4] was no more than 100 nM each time.
Regarding `CC(=O)Nc1cc(-c2nccc(-c3cc(NC(=O)c4ccnc(C(F)(F)F)c4)cnc3C)n2)ccn1` [Example 157], the IC50 was 1000 to 10000 nM in assay [1], no more than 100 nM in assay [2] and 100 to 500 nM in assay [3].
On the same counts, the results for `CC(=O)Nc1cc(-c2cncc(-c3cc(NC(=O)c4ccnc(C5CC5)c4)ccc3C)n2)ccn1` [Example 145] are no more than 100 nM, no more than 100 nM and no more than 100 nM.
With `CNC(=O)c1cc(-c2cncc(-c3cc(NC(=O)c4ccnc(C5(C#N)CC5)c4)ccc3C)n2)ccn1` [Example 138], the IC50 in assay [1] is 100 to 500 nM; in assay [2] it was no more than 100 nM; in assay [4], 100 to 500 nM.
As to `COCCNc1cc(-c2cccc(-c3cc(NC(=O)c4ccnc(C(F)(F)F)c4)ccc3C)c2)ncn1` [Example 156], the concentration for half-maximal inhibition (IC50) in assay [1] was 1000 to 10000 nM; in assay [2], 100 to 500 nM; in assay [3], 500 to 1000 nM.
As to `Cc1ccc(NC(=O)c2cccc(C(C)(C)C#N)c2)cc1-c1cc(OCCO)nc(-c2ccnc3c2CC(=O)N3)c1` [Example 108], the IC50 in assay [1], in assay [2] and in assay [3] was no more than 100 nM throughout.
